Measurements published in article PMC2652713, “Molecular Blocking of CD23 Supports Its Role in the Pathogenesis of Arthritis” (PLoS ONE, 2009).
“Also recorded” adds a separate entry of the source.

Assays:
human CD23+ macrophages = test: Cell mortality and apoptosis with p30A versus medium alone; format: cell-based
[1] = system: human CD23+ monocyte-derived macrophages; test: Nitrite (NO) generation by CD23-activated human macrophages, Griess reaction; format: cell-based
Procedure: Figure 2 Inhibition of CD23-mediated activation of iNOS pathway in human macrophages by p30A. Human CD23^+ monocyte-derived macrophages were incubated with cross-linking CD23-McAb (20 µg/ml) alone or following 1 h pre-incubation with 10 µg/ml of various peptides. […] Expression of iNOS mRNA was compared to HPRT mRNA levels. (B) Inhibition of NO generation from human activated macrophages by synthetic peptides. Cell supernatants were collected 72 h following cell cultures and levels of nitrites were determined. […] Results are expressed as mean of 3 distinct donor cell preparations (SEM<20%). (C) Inducible NOS-mediated NO generation in human macrophages is decreased following pre-incubation with p30A or L-NIL prior to CD23-mediated activation. Results are expressed as mean±s.d. of 7 distinct donor cell preparations.
(§1) Monocytes or macrophages were activated through CD23 pathway: while monocytes/macrophages from RA patients express CD23, monocytes from healthy donors must be pre-activated to express surface CD23 as described. This pre-activation was obtained by incubation of healthy monocytes with recombinant human IL-4 (20 ng/ml) during 48 h at 37°C; After washing, all cell populations were tested by flow cytometry for their surface CD23 expression (>80% CD23^+) and then incubated in the presence of cross-linking CD23-MAb (clones 135 or DM2, IgG1k, 20 µg/ml) during 48–72 h, or IgE and anti-IgE as described, [17]. When indicated, peptides were added to the cells 2 h prior to their activation. Cells supernatants were then analyzed for their nitric oxide content (see below) and for the presence of cytokines: levels of TNF-α and IL-6 were determined in duplicates for each sample by a specific ELISA (R&D, Paris, France) while levels of IL-1β, IL-8 and IL-10 was determined using FlowCytomix Human Th1/Th2 Kit as recommended (Bender Medsystems, Vienna, Austria).
Culture supernatants (72 h) were assayed for the stable end-product of NO, NO2 ^− using the Griess reaction modified as detailed elsewhere. Inhibitory analog of L-arginine, L-NIL (N(6)-(1-iminoethyl)-L-lysine/2HCl, Coger SA, Paris, France) was used to inhibit iNOS-mediated NO generation. This method gave a sensitivity limit of 0.2 µM if low NO2 ^− medium (DMEM) was used. Total RNA was isolated as above from peritoneal macrophages. Reverse transcription-PCR was performed with an automatic thermal cycler (iCycler, Biorad) using the following specific primers: iNOS mRNA sense (5′-[…]-3′, exon 8) and iNOS mRNA antisense (5′-[…]-3′, exon 11). Hypoxanthine phosphoribosyltransferase (HPRT) mRNA sense (5′-[…]-3′) and HPRT mRNA antisense (5′-[…]- 3′) primers were used as controls. The iNOS messenger is represented by a 371-bp band, whereas a 496-bp band indicates the HPRT messenger.

[2] = system: healthy human PBL-derived macrophages; test: Inflammatory mediator release from healthy human PBL-derived macrophages; format: cell-based
Procedure: Figure 4 Inhibition of inflammatory mediator generation from healthy human PBL-derived macrophages by p30A. Decreased levels of TNF-α (A), IL-6 (B), IL-1β, IL-8 and IL-10 (C) were detected in CD23-activated cells after incubation with p30A. […] Values are mean±s.d. of cells from 5 (IL-6, TNF-α) or 2 (IL-1β, IL-8, IL-10) different donors.
as §1

[3] = system: RA patients derived monocytes/macrophages; test: Inflammatory mediator release from rheumatoid arthritis patients' monocytes/macrophages; format: cell-based, human; settings: peripheral and synovial fluid monocytes/macrophages of 7 RA patients; 1 h pre-incubation, CD23 activation; 72 h
Source text: Figure 5 p30A inhibits the production of CD23-dependent inflammatory mediator release in cells from rheumatoid arthritis (RA) patients. (A) PBL and synovial monocytes/macrophages from RA patients were labeled with anti-CD23-FITC or isotype-matched (Iso) McAb and compared to healthy PBL. Representative fluorescence intensity data obtained from one case, out of 11 distinct patients or healthy individuals. (B) Inhibition of inflammatory mediator release from RA patients derived monocytes/macrophages. PBL monocytes or macrophages collected from synovial liquid were activated through CD23 after 1 h pre-incubation with/without p30A or pCtl. Cell supernatants were collected 72 h later and nitrites, TNF-α and IL-6 were quantified. Values are expressed as mean±s.e.m from 7 patients' cells.
Peripheral blood samples pre-tested for the absence of HIV or hepatitis virus infections were obtained from healthy volunteers (EFS Aquitaine, Bordeaux Blood Bank). We also collected paired peripheral blood and synovial fluid from seven patients, who fulfilled the American College of Rheumatology criteria for RA, during arthritic crisis. Written informed consent was obtained from all the patients. This study was carried out in compliance with the Helsinski Declaration and was approved by the National Ethical Authorities. All seven patients had previously received conventional therapy but none has been given TNF blocker or any other biologic treatment for their condition. […]
Monocytes or macrophages were activated through CD23 pathway: while monocytes/macrophages from RA patients express CD23, monocytes from healthy donors must be pre-activated to express surface CD23 as described. […] Cells supernatants were then analyzed for their nitric oxide content (see below) and for the presence of cytokines: levels of TNF-α and IL-6 were determined in duplicates for each sample by a specific ELISA (R&D, Paris, France) while levels of IL-1β, IL-8 and IL-10 was determined using FlowCytomix Human Th1/Th2 Kit as recommended (Bender Medsystems, Vienna, Austria). […]

[4] = FlowCytomix, mean±s.d., 2 donors

FHENWPS [p30A]
cell mortality and apoptosis (human CD23+ macrophages; in the presence of p30A compared to cells in medium alone, no significant variations): < 5%
cell toxicity (human CD23+ macrophages; monocytes/macrophages): without cell toxicity
NO (nitrite) generation, dose-dependence ([1]; CD23-McAb 20 µg/ml, 1 h pre-incubation with peptide, supernatants at 72 h, mean of 3 donors (SEM<20%)): reversed by p30A in a dose-dependent manner; also recorded: Dose-dependent reduction of nitrites
iNOS-mediated NO generation ([1]; pre-incubation prior to CD23-mediated activation, mean±s.d. of 7 donors (Figure 2C)): decreased
IL-6 level ([2]; ELISA, mean±s.d., 5 donors): Decreased
TNF-α level ([2]; ELISA, mean±s.d., 5 donors): Decreased
IL-1β level [2, 4]: Decreased
IL-8 level [2, 4]: Decreased
IL-10 level [2, 4]: Decreased
inhibition of CD23-mediated inflammatory mediators at protein level ([2]; TNF-α, IL-6, IL-1β, IL-8 and IL-10 in supernatants): significantly inhibited all CD23-mediated activation of inflammatory mediators at protein levels
IL-6 release [3]: reversed inflammatory mediators at the same levels than control cell-supernatants
TNF-α release [3]: reversed inflammatory mediators at the same levels than control cell-supernatants
nitric oxide (nitrites) release [3]: reversed inflammatory mediators at the same levels than control cell-supernatants
